Read-outs that look alike come from different tables or passages of the source.
System: HCMV
Format: cell-based
Description: In example herpesvirus PRM assay methods shown herein, cell pellets were lysed in 2% SDS, 100 mM NaCl, 0.5 mM EDTA, 50 mM Tris, pH 8.2, and 50 μg of protein was reduced and alkylated with 25 mM TCEP and 50 mM CAM respectively for 20 min at 70° C. Proteins were then precipitated via methanol chloroform precipitation (Wessel & Flugg, Anal Biochem. 138(1):141-143, 1984), resuspended in 50 mM HEPES, pH 8.2 and digested overnight with trypsin (50:1 protein:enzyme w/w ratio). Digested peptides were desalted by SDB-RPS StageTip as previously described (Lum et al., Cell Syst., 7(6):[…], 2018; Greco et al., Methods Mol Biol 1410:39-63, 2016; Federspiel & Cristea, Methods Mol Biol., 1977:115-143, 2019).
Peptides (1.0 μg on column) were analyzed by LC-MS/MS using a Dionex Ultimate 3000 UHPLC coupled online to an EASYSpray ion source and a Q Exactive HF. Peptides were separated on an EASYSpray C18 column (75 μm×25 cm) heated to 50° C. using a linear gradient of 5% B to 32% B over 60 min at a flow rate of 250 nL/min and were ionized at 1.7 kv. Mobile phase A consisted of 0.1% FA in H2O and mobile phase B consisted of 0.1% FA, 2.9% H2O in ACN.
The PRM method was controlled by a peptide inclusion list with retention time windows of 6 min for selected precursor ions.
The PRM assay was developed and analyzed using the open-source software Skyline (Maclean et al., Bioinformatics 26(7):966-968, 2010). Summed area under the curve of 3-4 transitions per peptide was used for quantitation. Targeted peptides were normalized to host protein loading control peptides. Peptide values for each sample were scaled to the average of each peptide across all runs. The average of multiple peptides was used as the inferred value for the protein measurement when more than one peptide was quantified (Federspiel et al., PLoS Biol. 17(9):e3000437. Doi: 10.1371/journal.pbio.3000437). PRM quantitation data were graphed using the Python Seaborn and Matplotlib libraries.
MRC5 primary human fibroblasts (HFs) (ATCC CCL-171) were used as the model system for HSV-1 and HCMV infections and were cultured in complete growth medium (DMEM supplemented with 10% fetal bovine serum and 1% penicillin-streptomycin antibiotics) at 37° C. and 5% CO2. iSLK.219 cells harboring latent KSHV (a gift from Dr. Britt Glaunsinger, University of California, Berkeley) were grown in complete growth medium supplemented with 500 μg/ml hygromycin (ThermoFisher Scientific, 10687010) at 37° C. and 5% CO2. All cells were used for experiments within a maximum of 10 passages.
Wild type HSV-1 strain 17+ (a gift from Beate Sodeik, Hannover Medical School, Hannover, Germany) was propagated as previously described (Diner et al., 2015). Briefly, PO stocks were generated by electroporating pBAC-HSV-1 into U-2 OS cells. […] In a similar manner, wild type HCMV strain AD169 was produced from BAC electroporation into HFs and working stocks were propagated by infecting HFs at a low level. In both cases, cell-associated virus was released by sonication, combined with supernatant virus, then concentrated by ultracentrifugation (20,000 rpm, 2 hours, 4° C. with SW28 swinging bucket rotor [Beckman Coulter]) over a 10% ficoll (HSV-1) or 20% sorbitol (HCMV) cushion. Virus stock titers were determined by plaque assay for HSV-1 or tissue culture infectious dose (TCID50) for HCMV and infections were performed at a multiplicity of infection (MOI) of 3.
12 hours prior to virus infection or reactivation, cells were treated with either the small molecule drug or DMSO/PBS control at an equivalent volume. […] For infection cycles lasting longer than 24 hours, small molecule drugs were re-added to the cell culture medium every 24 hours. Upon collection, cells were rinsed with PBS, scraped into a microcentrifuge tube, pelleted by centrifugation, and rinsed again with PBS.

Nc1ccn(C[C@@H](CO)OCP(=O)(O)O)c(=O)n1 [CDV, cidofovir]
UL80 (P16753) protein, numerical value of heatmap FIG. 6C (L, timepoint 96): 1.017 | UL82 (P06726) protein, numerical value of heatmap FIG. 6C (L, timepoint 96): 0.9932 | UL87 (P16730) protein, numerical value of heatmap FIG. 6C (L, timepoint 96): 0.3187 | UL88 (P16731) protein, numerical value of heatmap FIG. 6C (L, timepoint 96): 0.6827 | UL94 (P16800) protein, numerical value of heatmap FIG. 6C (L, timepoint 96): 0.8521 | UL99 (P13200) protein, numerical value of heatmap FIG. 6C (L, timepoint 96): 0.9111 | UL103 (P16734) protein, numerical value of heatmap FIG. 6C (L, timepoint 96): 0.899 | UL117 (P16770) protein, numerical value of heatmap FIG. 6C (L, timepoint 96): 0.5858 | gH (P12824) protein, numerical value of heatmap FIG. 6C (L, timepoint 96): 1.268 | gL (P16832) protein, numerical value of heatmap FIG. 6C (L, timepoint 96): 0.676 | gM (P16733) protein, numerical value of heatmap FIG. 6C (L, timepoint 96): 0.9966 | gN (P16795) protein, numerical value of heatmap FIG. 6C (L, timepoint 96): 0.6947 | sp|P16809|IR11_HCMVA (P16809) protein, numerical value of heatmap FIG. 6C (L, timepoint 96): 0.6961 | CVC1 (P16799) protein, numerical value of heatmap FIG. 6C (L, timepoint 120): 0.8775 | GO (P16750) protein, numerical value of heatmap FIG. 6C (L, timepoint 120): 0.821 | MCP (P16729) protein, numerical value of heatmap FIG. 6C (L, timepoint 120): 1.664 | SCP (Q7M6N6) protein, numerical value of heatmap FIG. 6C (L, timepoint 120): 1.225 | TRM2 (P16792) protein, numerical value of heatmap FIG. 6C (L, timepoint 120): 1.244 | UL22A (P16845) protein, numerical value of heatmap FIG. 6C (L, timepoint 120): 1.64 | UL25 (P16761) protein, numerical value of heatmap FIG. 6C (L, timepoint 120): 1.445 | UL29 (P16764) protein, numerical value of heatmap FIG. 6C (L, timepoint 120): 1.329 | UL30 (P16765) protein, numerical value of heatmap FIG. 6C (L, timepoint 120): 0.9125 | UL31 (P16848) protein, numerical value of heatmap FIG. 6C (L, timepoint 120): 1.094 | UL43 (P16781) protein, numerical value of heatmap FIG. 6C (L, timepoint 120): 1.1093 | UL52 (P16793) protein, numerical value of heatmap FIG. 6C (L, timepoint 120): 1.493 | UL76 (P16725) protein, numerical value of heatmap FIG. 6C (L, timepoint 120): 0.7396 | UL79 (P16752) protein, numerical value of heatmap FIG. 6C (L, timepoint 120): 0.8598 | UL80 (P16753) protein, numerical value of heatmap FIG. 6C (L, timepoint 120): 1.249 | UL82 (P06726) protein, numerical value of heatmap FIG. 6C (L, timepoint 120): 1.469 | UL87 (P16730) protein, numerical value of heatmap FIG. 6C (L, timepoint 120): 0.5716 | UL88 (P16731) protein, numerical value of heatmap FIG. 6C (L, timepoint 120): 0.8088 | UL94 (P16800) protein, numerical value of heatmap FIG. 6C (L, timepoint 120): 1.266 | UL99 (P13200) protein, numerical value of heatmap FIG. 6C (L, timepoint 120): 1.628 | UL103 (P16734) protein, numerical value of heatmap FIG. 6C (L, timepoint 120): 1.157 | UL117 (P16770) protein, numerical value of heatmap FIG. 6C (L, timepoint 120): 0.837 | gH (P12824) protein, numerical value of heatmap FIG. 6C (L, timepoint 120): 1.57 | gL (P16832) protein, numerical value of heatmap FIG. 6C (L, timepoint 120): 1.175 | gM (P16733) protein, numerical value of heatmap FIG. 6C (L, timepoint 120): 1.476 | gN (P16795) protein, numerical value of heatmap FIG. 6C (L, timepoint 120): 1.396 | sp|P16809|IR11_HCMVA (P16809) protein, numerical value of heatmap FIG. 6C (L, timepoint 120): 0.7634 | TRX2 (P16728) protein, numerical value of heatmap FIG. 6C (LL, timepoint 24): 0.008754 | UL69 (P16749) protein, numerical value of heatmap FIG. 6C (LL, timepoint 24): 0.1676 | UL70 (P17149) protein, numerical value of heatmap FIG. 6C (LL, timepoint 24): 0.06824 | UL83 (P06725) protein, numerical value of heatmap FIG. 6C (LL, timepoint 24): 0.03389 | UL132 (P69338) protein, numerical value of heatmap FIG. 6C (LL, timepoint 24): 0.04048 | US15 (P09718) protein, numerical value of heatmap FIG. 6C (LL, timepoint 24): 0.5879 | DUT (P16824) protein, numerical value of heatmap FIG. 6C (LL, timepoint 48): 0.2905 | TRX1 (P16783) protein, numerical value of heatmap FIG. 6C (LL, timepoint 48): 0.01277 | TRX2 (P16728) protein, numerical value of heatmap FIG. 6C (LL, timepoint 48): 0.01952 | UL24 (P16760) protein, numerical value of heatmap FIG. 6C (LL, timepoint 48): 0.107 | UL40 (P16780) protein, numerical value of heatmap FIG. 6C (LL, timepoint 48): 0.3905

From patent US20240027453A1, “METHOD FOR DETECTION AND QUANTITATIVE MONITORING OF INFECTIONS WITH HERPESVIRUSES” (The Trustees of Princeton University, priority 2020, published 2024)
